BindingDB's records for patent US11691963 (Ajax Therapeutics, 2023)

Biological target: Tyrosine-protein kinase JAK2 [Y1007F,Y1008F] (Homo sapiens, UniProt O60674, Y1007F/Y1008F)
Assay: JAK2 Binding Assay
Experimental: Streptavidin-coated magnetic beads were treated with biotinylated small molecule ligands for 30 minutes at room temperature to generate affinity resins for kinase assays. The liganded beads were blocked with excess biotin and washed with blocking buffer (SeaBlock (Pierce), 1% BSA, 0.05% Tween 20, 1 mmol/L DTT) to remove unbound ligand and to reduce nonspecific phage binding. Binding reactions were assembled by combining kinases, liganded affinity beads, and test compounds in 1× binding buffer (1×PBS, 0.05% Tween 20, 0.1% BSA, 1 mmol/L DTT). Test compound was prepared as 111× stocks in 100% DMSO and directly diluted into the assay wells. All reactions were performed in polypropylene 384-well plates in a final volume of 0.02 mL. The assay plates were incubated at room temperature with shaking for 1 hour and the affinity beads were washed with wash buffer (1×PBS, 0.05% Tween 20). The beads were then re-suspended in elution buffer (1×PBS, 0.05% Tween 20, 0.5 μmol/L non-biotinylated affinity ligand) and incubated at room temperature with shaking for 30 minutes. The kinase concentration in the eluate was measured by qPCR.

Sequence of Tyrosine-protein kinase JAK2 [Y1007F,Y1008F] (O60674 whole entry Y1007F/Y1008F): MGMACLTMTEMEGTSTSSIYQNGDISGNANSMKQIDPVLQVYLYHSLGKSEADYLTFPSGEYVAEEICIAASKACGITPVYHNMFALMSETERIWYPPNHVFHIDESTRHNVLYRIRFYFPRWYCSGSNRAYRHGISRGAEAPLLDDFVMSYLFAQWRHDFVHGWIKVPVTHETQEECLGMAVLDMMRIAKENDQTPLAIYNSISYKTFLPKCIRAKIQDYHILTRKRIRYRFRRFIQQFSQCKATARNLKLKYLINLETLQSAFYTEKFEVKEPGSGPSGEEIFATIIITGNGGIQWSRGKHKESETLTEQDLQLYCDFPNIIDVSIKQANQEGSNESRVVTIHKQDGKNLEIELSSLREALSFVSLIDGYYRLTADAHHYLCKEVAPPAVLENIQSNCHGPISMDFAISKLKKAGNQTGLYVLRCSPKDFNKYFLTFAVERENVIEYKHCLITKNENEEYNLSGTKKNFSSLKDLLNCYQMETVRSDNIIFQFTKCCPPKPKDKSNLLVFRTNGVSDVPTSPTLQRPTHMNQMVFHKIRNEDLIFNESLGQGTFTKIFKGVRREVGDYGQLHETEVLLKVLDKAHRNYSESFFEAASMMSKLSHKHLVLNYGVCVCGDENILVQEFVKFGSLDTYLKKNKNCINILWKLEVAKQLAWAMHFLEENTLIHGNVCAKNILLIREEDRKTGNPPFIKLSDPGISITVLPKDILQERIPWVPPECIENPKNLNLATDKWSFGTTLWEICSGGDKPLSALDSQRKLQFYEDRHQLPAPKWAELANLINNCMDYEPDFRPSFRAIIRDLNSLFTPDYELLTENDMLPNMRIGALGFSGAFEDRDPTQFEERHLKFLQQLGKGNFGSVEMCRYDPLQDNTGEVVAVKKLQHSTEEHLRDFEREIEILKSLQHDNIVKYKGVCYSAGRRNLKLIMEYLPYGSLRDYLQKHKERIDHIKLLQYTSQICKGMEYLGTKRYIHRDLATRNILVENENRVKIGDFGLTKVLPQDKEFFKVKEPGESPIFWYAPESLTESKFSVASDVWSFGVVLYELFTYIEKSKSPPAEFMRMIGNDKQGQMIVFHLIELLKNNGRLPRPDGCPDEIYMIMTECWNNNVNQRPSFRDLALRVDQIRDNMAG

Kd [nM]	Structure (SMILES)
< 10	CC(=O)Nc1cc(Oc2ccc3nc(Nc4cc5n(n4)CCCC5(C)C)n(C)c3n2)ccn1 [US11691963, Example I-42]
< 10	CC(=O)Nc1cc(Oc2cnc3nc(Nc4cc(C(C)(C)C)n([C@H]5C[C@@H](O)C5)n4)n(C)c3c2)ccn1 [US11691963, Example I-116]
< 10	CC(=O)Nc1cc(Oc2ccc3nc(Nc4cc(C(C)(C)C)n(C[C@H]5C[C@@H](O)C5)n4)n(C)c3c2)ccn1 [US11691963, Example I-28]
< 10	CC(=O)Nc1cc(Oc2cnc3nc(Nc4cc(C(C)(C)C)n([C@H]5C[C@H](O)C5)n4)n(C)c3c2)ccn1 [US11691963, Example I-115]
